{
  "source": "patent US20240269123A1",
  "about": "“MUSCLE REGENERATION PROMOTER” (priority 2021, published 2024)",
  "key": {"histamine H3 receptor": {"system": "histamine H3 receptor", "details": "statement taken from the literature; cited from earlier work"}, "[1]": {"system": "tibialis anterior muscle damaged by snake venom cardiotoxin (CTX)", "experiment": "Muscle regeneration in cardiotoxin (CTX) muscle-damage model mouse, regenerated single muscle fiber area", "format": "in vivo, mouse (C57BL/6)", "details": "once a day; for increase in the mean muscle fiber area as compared with the Vehicle administration group: day before CTX to 6 days after CTX, muscle collected 7 days after CTX; for histogram of the regenerated single-muscle fiber area as compared with the Vehicle administration group: 7 days after CTX", "protocol": "Seven-week old C57BL/6 Male mice (CLEA Japan, Inc.) were purchased, and used for experiment at the age of 8 weeks.\nA model animal to which muscle damage had been caused by administration of snake venom cardiotoxin (CTX) was used. The muscle-damaged model animal has been widely used in studies on the regeneration from muscle damage.\nUnder the anesthesia with isoflurane, 50 μL of 10 μM CTX was administered to the tibialis anterior muscle of the right hindlimb of the mouse. After 7 days of the administration of CTX, the tibialis anterior muscle was collected by dissection, and supplied to the preparation of a muscle tissue section.\nImmediately after the collection of the tibialis anterior muscle, the tibialis anterior muscle was immersed in isopentane cooled with liquid nitrogen and was rapidly frozen. The frozen muscle tissue was cut into slices each having a thickness of 10 μm by using a cryostat (Leica Biosystems), and the slice was attached onto an antistripping coated slide glass (Matsunami Glass Ind., Ltd.).\nA muscle tissue section was sufficiently air dried for 30 minutes under room temperature. After that, the muscle tissue section was fixed by immersing it in acetone cooled to −30° C. and treating at −30° ° C. for 20 minutes. The fixed section was air dried once and washed with PBS. Then the section was blocked by dropwisely adding a blocking reagent (Blocking One, NACALAI TESQUE, INC.) to the section and being subjected to the blocking treatment for 1 hour. Next, a primary antibody (Anti-laminin-2 (α-2 Chain) antibody, Rat monoclonal (Sigma-Aldrich)) obtained by being diluted 500 times with the blocking reagent was added dropwise, and the reaction was conducted at overnight at 4° C. Since laminin to which a primary antibody binds is a protein expressed in all muscle cells, the primary antibody was used in this experiment in order to measure the area of individual muscle cells in a section. The muscle tissue section after the reaction with the primary antibody was washed with PBS, and then was reacted for 1 hour with a secondary antibody (CF 488A Goat Anti-Rat IgG (H+L) (Biotium)) obtained by being diluted 500 times with the blocking reagent. The secondary antibody that is an anti-rat antibody conjugated with a fluorescent dye binds to the primary antibody, and stains the laminin. The muscle tissue section after the reaction with the secondary antibody was washed with PBS, and sealed by using “[…] Hard. Set with DAPI” (Vector), and then the fluorescence observation was performed with an inverted microscope FSX100 (Olympus). The “[…] Hard Set with DAPI” was used for staining the central nucleus of muscle cells.\nThe muscle regeneration was evaluated on the basis of the image data taken from the fluorescence observation. In this experiment, muscle cells each having a central nucleus (single muscle fiber having a central nuclei) were used as an indicator for regenerated muscle. After the image data was taken into image analysis software ImageJ (NIH), a muscle cell having a central nucleus was extracted. The cross-sectional area of the extracted individual cells was measured on the basis of the cell membrane stained with laminin. For the area measurement, “Analyze Particles” that is an add-in analysis program on ImageJ was used. The measurement results were shown as a distribution chart (histogram) of the areas and number of regenerated single-muscle fibers, and as an average value of the cross-sectional areas of all the regenerated single muscle fibers (mean muscle fiber area). […]"}, "[2]": {"details": "1 μM in PBS, 10 μL intramuscular"}, "[3]": {"details": "6.3 mM in PBS with 5% tween 20, 10 μL intramuscular"}},
  "note": "Counter-ions that a name gives are not always drawn.",
  "data": [
    {"smiles": "C[C@@H](N)Cc1c[nH]cn1", "note": "[Compound 1, (2R)-1-(1H-imidazol-4-yl)propan-2-amine]", "values": [
      {"measurement": "selectivity of agonist activity for the histamine H3 receptor over other histamine receptors", "setting": "histamine H3 receptor", "result": "selective histamine H3 receptor agonist"}
    ]},
    {"smiles": "CNCCc1c[nH]cn1", "note": "[Compound 4, 2-(1H-imidazol-4-yl)-N-methylethan-1-amine]", "values": [
      {"measurement": "selectivity of agonist activity for the histamine H3 receptor over other histamine receptors", "setting": "histamine H3 receptor", "result": "non-selective histamine H3 receptor agonist"}
    ]},
    {"smiles": "c1cc(Cc2c[nH]cn2)ccn1", "note": "[Compound 5, 4-[(1H-imidazol-4-yl)methyl]pyridine]", "values": [
      {"measurement": "selectivity of agonist activity for the histamine H3 receptor over other histamine receptors", "setting": "histamine H3 receptor", "result": "selective histamine H3 receptor agonist"}
    ]},
    {"smiles": "c1nc(CC2CCNCC2)c[nH]1", "note": "[Compound 13, 4-[(1H-imidazol-4-yl)methyl]piperidine]", "values": [
      {"measurement": "selectivity of agonist activity for the histamine H3 receptor over other histamine receptors", "setting": "histamine H3 receptor", "result": "selective histamine H3 receptor agonist"}
    ]},
    {"smiles": "CN1CCC(Cc2c[nH]cn2)CC1", "note": "[Compound 15, 4-[(1H-imidazol-4-yl)methyl]-1-methylpiperidine]", "values": [
      {"measurement": "selectivity of agonist activity for the histamine H3 receptor over other histamine receptors", "setting": "histamine H3 receptor", "result": "selective histamine H3 receptor agonist"}
    ]},
    {"smiles": "CCCNC1CN(c2ccnc(N)n2)C1", "note": "[Compound 20, 4-[3-(propylamino)azetidin-1-yl]pyrimidin-2-amine]", "values": [
      {"measurement": "selectivity of agonist activity for the histamine H3 receptor over other histamine receptors", "setting": "histamine H3 receptor", "result": "selective histamine H3 receptor agonist"}
    ]},
    {"smiles": "N=C(N)SCCc1c[nH]cn1", "note": "[Imetit dihydrobromide, 2-(1H-imidazol-4-yl)ethyl carbamimidothioate]", "values": [
      {"measurement": "increase in the mean muscle fiber area as compared with the Vehicle administration group", "setting": "[1]; 1 μM in PBS, 10 μL intramuscular, unit not given", "result": 13.18},
      {"measurement": "histogram of the regenerated single-muscle fiber area as compared with the Vehicle administration group", "setting": "[1]; [2]", "result": "shifted to the right side"}
    ]},
    {"smiles": "c1cc(Cc2c[nH]cn2)ccn1", "note": "[Immethridine dihydrobromide, 4-[(1H-imidazol-4-yl)methyl]pyridine]", "values": [
      {"measurement": "increase in the mean muscle fiber area as compared with the Vehicle administration group", "setting": "[1]; [2]", "result": 14.0, "unit": "%"},
      {"measurement": "histogram of the regenerated single-muscle fiber area as compared with the Vehicle administration group", "setting": "[1]; [2]", "result": "shifted to the right side"}
    ]},
    {"smiles": "CNCCc1c[nH]cn1", "note": "[N^α-methylhistamine dihydrochloride, 2-(1H-imidazol-4-yl)-N-methylethan-1-amine]", "values": [
      {"measurement": "increase in the mean muscle fiber area as compared with the Vehicle administration group", "setting": "[1]; [2]", "result": 7.1, "unit": "%"},
      {"measurement": "histogram of the regenerated single-muscle fiber area as compared with the Vehicle administration group", "setting": "[1]; [2]", "result": "shifted to the right side"}
    ]},
    {"smiles": "C[C@@H](N)Cc1c[nH]cn1", "note": "[R-α-methylhistamine dihydrochloride, (2R)-1-(1H-imidazol-4-yl)propan-2-amine]", "values": [
      {"measurement": "increase in the mean muscle fiber area as compared with the Vehicle administration group", "setting": "[1]; [3]", "result": 12.3, "unit": "%"},
      {"measurement": "histogram of the regenerated single-muscle fiber area as compared with the Vehicle administration group", "setting": "[1]; [3]", "result": "shifted to the right side"}
    ]}
  ]
}
